Test results as given in patent publication US20090042951A1, “Blood Pressure Reduction in Salt-Sensitive Hypertension” (priority 2004, published 2009).

How the values were obtained:
[1] = test system: Dahl salt-sensitive (SS/Jr) rats; experiment: Telemetric arterial blood pressure monitoring in Dahl salt-sensitive rats on high salt diet; format: in vivo, rat; conditions: for anti-hypertensive activity: found by the methods described herein
Method: (§1) Male Dahl salt-resistant (SR/Jr) rats (250-300 gm, Harlan, Indianapolis, Ind.) were used as controls. Non-salt-sensitive, spontaneously hypertensive rats (SHR) were also employed in some experiments. Each rat was housed individually with a 12 hour light/12 hour dark cycle. The animal use protocols were approved by the Chicago—West Side Veterans Administration Institutional Animal Care and Use Committee.
(§2) Arterial blood pressures in unrestrained rats were monitored using a model TA11PA-C20 (Data Science, International, St. Paul, Minn.) implantable telemetric blood pressure monitoring system. The rats were anesthetized using an intraperitoneal injection (50 mg/kg i.p.) of nembutol sodium solution prior to implantation of the monitor. The radio-transmitter catheter was inserted via a midline abdominal incision into the left femoral artery and sutured in place after the tip of the catheter was advanced into the proximal aorta. The catheter was tunneled under the skin and the body of the transmitter was positioned in a subcutaneous pocket near the right flank of the rat. Data acquisition began after normal diurnal blood pressure variability had been reestablished, typically about seven days after surgery. Continuous measurements of pulsatile central aortic blood pressure were recorded by a receiver placed under each rat's cage.
A baseline arterial blood pressure was established for each rat from continuous measurements made over a two day period prior to the start of an experiment. […] Monitoring continued for four additional days. […] The p-value in both cases is less than 0.05.

dogs = conditions: administration of rolipram, increased cAMP; cited from earlier work
[2] = test system: spontaneously hypertensive rats (SHR); experiment: Telemetric arterial blood pressure monitoring in spontaneously hypertensive rats on 8% NaCl diet; format: in vivo, rat; conditions: single IP injection 10 mg/kg, continuous telemetric recording
Method: as §1
as §2, with “cage. […]” for “cage.”

| Structure (SMILES) | anti-hypertensive activity [1] | renal vascular resistance (dogs) | secretion of electrolytes (dogs) | duration of drop in blood pressure ([1]; Dahl SS/Jr rat, 8% NaCl diet, single IP injection 10 mg/kg) | effect on arterial blood pressure ([1]; Dahl SS/Jr rat, 8% NaCl diet, single IP injection 10 mg/kg, continuous telemetric recording) | effect on arterial blood pressure [2] |
| --- | --- | --- | --- | --- | --- | --- |
| COc1ccc(C(=O)Nc2c(Cl)cncc2Cl)cc1OC1CCCC1 [RP73401] | exhibit anti-hypertensive activity | – | – | – | – | – |
| O=c1c2cccnc2n(-c2cccc([N+](=O)[O-])c2)c(=O)n1Cc1ccncc1 [RS25344] | exhibit anti-hypertensive activity | – | – | – | – | – |
| CCn1c(=O)c2ccccc2n(-c2cccc([N+](=O)[O-])c2)c1=O [TVX2706] | exhibit anti-hypertensive activity | – | – | – | – | – |
| COc1ccc(C2CNC(=O)C2)cc1OC1CCCC1 (stereo not drawn) [rolipram, Rolipram] | exhibit anti-hypertensive activity | reduces renal vascular resistance | promotes secretion of electrolytes | > 2 days | very significant and prolonged (>2 days) drop in blood pressure | brief, shallow dip in blood pressure immediately after rolipram injection followed by a gradual decline and recovery of blood pressure |
